# Reference: patent publication US8758816B2, “Compositions comprising azelastine and methods of use thereof” (priority 2004, dated 2014)
# Where a name gives a salt, the structure may show the parent alone.
# System: patients with seasonal allergic rhinitis (SAR)
# Assay: MP 428 study: adverse events, Safety Population
# Type: in vivo, human
# Description: A two-week, randomized, double-blind study, which evaluated the effects of the co-administration of ASTELIN® (azelastine hydrochloride (HCl)) and FLONASE® (fluticasone propionate) compared to either product alone in patients with seasonal allergic rhinitis (SAR) was conducted during the 2006 Texas mountain cedar season. After a 5-day placebo lead-in period, 151 patients with moderate-to-severe allergic rhinitis symptoms were randomized to either: (1) (49 total patients) ASTELIN® (azelastine hydrochloride (HCl)) plus placebo saline nasal spray 2 sprays per nostril, 15 minutes apart, twice daily (AM & PM); (2) (50 total patients) FLONASE® (fluticasone propionate) plus placebo saline nasal spray, 2 sprays per nostril, 15 minutes apart, once daily (AM) and two sessions of placebo saline nasal spray, 2 sprays per nostril, 15 minutes apart (PM); or (3) (52 total patients) the co-administration of ASTELIN® (azelastine hydrochloride (HCl)) 2 sprays per nostril plus FLONASE® (fluticasone propionate) 2 sprays per nostril (AM), 15 minutes apart, and ASTELIN® (azelastine hydrochloride (HCl)) 2 sprays per nostril plus placebo saline nasal spray, 15 minutes apart, (PM) for a 2-week double-blind treatment period.
# The most common adverse events (AEs) were bitter taste (8.2% in ASTELIN® (azelastine hydrochloride (HCl)) group, 2.0% in FLONASE® (fluticasone propionate) group, 13.5% in co-administration group) and headache (4.1% in ASTELIN® (azelastine hydrochloride (HCl)) group, 4.0% in FLONASE® (fluticasone propionate) group, 5.8% in co-administration group). No other AE was reported by more than one patient in any treatment group. There were no discontinuations due to AEs.
# [1] = Possibly related to study drug, Safety Population
# [2] = Probably related to study drug, Safety Population
# [3] = Total (possibly or probably related), Safety Population
structure (smiles),measurement,setting,value
"CN1CCCC(n2nc(Cc3ccc(Cl)cc3)c3ccccc3c2=O)CC1 (racemic) [Azelastine, (±)-1-(2H)-phthalazinone, 4-[(4-chlorophenyl)methyl]-2-(hexahydro-1-methyl-1H-azepin-4-yl)-, mono-hydrochloride]",Primary Reason for Discontinuation From Study: Adverse Event,All Randomized Patients,0 (0.0) N (%)
same,Number (%) Patients With Treatment-Related AEs by Maximum Severity,Mild,1 (2.0) Number (%)
same,Number (%) Patients With Treatment-Related AEs by Maximum Severity,Moderate,0 (0.0) Number (%)
same,Treatment-Related Adverse Events: Any Adverse Event,[1],1 (2.0) No. of Patients (%)
same,Treatment-Related Adverse Events: DRY MOUTH,[1],0 (0.0) No. of Patients (%)
same,Treatment-Related Adverse Events: DYSGEUSIA,[1],1 (2.0) No. of Patients (%)
same,Treatment-Related Adverse Events: EPISTAXIS,[1],0 (0.0) No. of Patients (%)
same,"Treatment-Related Adverse Events: GASTROINTESTINAL DISORDERS, Any Preferred Term",[1],1 (2.0) No. of Patients (%)
same,Treatment-Related Adverse Events: HEADACHE,[1],0 (0.0) No. of Patients (%)
same,Treatment-Related Adverse Events: NASAL DISCOMFORT,[1],0 (0.0) No. of Patients (%)
same,"Treatment-Related Adverse Events: NERVOUS SYSTEM DISORDERS, Any Preferred Term",[1],0 (0.0) No. of Patients (%)
same,"Treatment-Related Adverse Events: RESPIRATORY, THORACIC AND MEDIASTINAL DISORDERS, Any Preferred Term",[1],0 (0.0) No. of Patients (%)
same,Treatment-Related Adverse Events: STOMACH DISCOMFORT,[1],0 (0.0) No. of Patients (%)
same,Treatment-Related Adverse Events: Any Adverse Event,[2],3 (6.1) No. of Patients (%)
same,Treatment-Related Adverse Events: DRY MOUTH,[2],0 (0.0) No. of Patients (%)
same,Treatment-Related Adverse Events: DYSGEUSIA,[2],3 (6.1) No. of Patients (%)
same,Treatment-Related Adverse Events: EPISTAXIS,[2],0 (0.0) No. of Patients (%)
same,"Treatment-Related Adverse Events: GASTROINTESTINAL DISORDERS, Any Preferred Term",[2],3 (6.1) No. of Patients (%)
same,Treatment-Related Adverse Events: HEADACHE,[2],0 (0.0) No. of Patients (%)
same,Treatment-Related Adverse Events: NASAL DISCOMFORT,[2],0 (0.0) No. of Patients (%)
same,"Treatment-Related Adverse Events: NERVOUS SYSTEM DISORDERS, Any Preferred Term",[2],0 (0.0) No. of Patients (%)
same,"Treatment-Related Adverse Events: RESPIRATORY, THORACIC AND MEDIASTINAL DISORDERS, Any Preferred Term",[2],0 (0.0) No. of Patients (%)
same,Treatment-Related Adverse Events: STOMACH DISCOMFORT,[2],0 (0.0) No. of Patients (%)
same,Number (%) Patients With Any AEs: All Treatment-Related AEs,Safety Population,4 (8.2) Number (%)
same,Number (%) of Deaths,Safety Population,0 (0.0) Number (%)
same,Number (%) of Patients With Serious AEs,Safety Population,0 (0.0) Number (%)
same,Number of Adverse Events Reported: All Treatment-Emergent AEs,Safety Population,9
same,Number of Adverse Events Reported: All Treatment-Related AEs,Safety Population,4
same,Number (%) Patients With Treatment-Related AEs by Maximum Severity,Severe,3 (6.1) Number (%)
same,Treatment-Emergent AE: Any Adverse Event,Total,8 (16.3) No. of Patients (%)
same,Treatment-Emergent AE: DRY MOUTH,Total,0 (0.0) No. of Patients (%)
same,Treatment-Emergent AE: DYSGEUSIA,Total,4 (8.2) No. of Patients (%)
same,"Treatment-Emergent AE: EAR AND LABYRINTH DISORDERS, Any Preferred Term",Total,1 (2.0) No. of Patients (%)
same,Treatment-Emergent AE: EAR PAIN,Total,1 (2.0) No. of Patients (%)
same,Treatment-Emergent AE: EPISTAXIS,Total,0 (0.0) No. of Patients (%)
same,"Treatment-Emergent AE: GASTROINTESTINAL DISORDERS, Any Preferred Term",Total,4 (8.2) No. of Patients (%)
same,Treatment-Emergent AE: HEADACHE,Total,2 (4.1) No. of Patients (%)
same,"Treatment-Emergent AE: MUSCULOSKELETAL AND CONNECTIVE TISSUE DISORDERS, Any Preferred Term",Total,1 (2.0) No. of Patients (%)
same,Treatment-Emergent AE: MYALGIA,Total,0 (0.0) No. of Patients (%)
same,Treatment-Emergent AE: NASAL DISCOMFORT,Total,0 (0.0) No. of Patients (%)
same,Treatment-Emergent AE: NECK PAIN,Total,1 (2.0) No. of Patients (%)
same,"Treatment-Emergent AE: NERVOUS SYSTEM DISORDERS, Any Preferred Term",Total,2 (4.1) No. of Patients (%)
same,Treatment-Emergent AE: PHARYNGOLARYNGEAL PAIN,Total,1 (2.0) No. of Patients (%)
same,"Treatment-Emergent AE: RESPIRATORY, THORACIC AND MEDIASTINAL DISORDERS, Any Preferred Term",Total,1 (2.0) No. of Patients (%)
same,Treatment-Emergent AE: STOMACH DISCOMFORT,Total,0 (0.0) No. of Patients (%)
same,Treatment-Related Adverse Events: Any Adverse Event,[3],4 (8.2) No. of Patients (%)
same,Treatment-Related Adverse Events: DRY MOUTH,[3],0 (0.0) No. of Patients (%)
same,Treatment-Related Adverse Events: DYSGEUSIA,[3],4 (8.2) No. of Patients (%)
same,Treatment-Related Adverse Events: EPISTAXIS,[3],0 (0.0) No. of Patients (%)
same,"Treatment-Related Adverse Events: GASTROINTESTINAL DISORDERS, Any Preferred Term",[3],4 (8.2) No. of Patients (%)
same,Treatment-Related Adverse Events: HEADACHE,[3],0 (0.0) No. of Patients (%)
same,Treatment-Related Adverse Events: NASAL DISCOMFORT,[3],0 (0.0) No. of Patients (%)
same,"Treatment-Related Adverse Events: NERVOUS SYSTEM DISORDERS, Any Preferred Term",[3],0 (0.0) No. of Patients (%)
same,"Treatment-Related Adverse Events: RESPIRATORY, THORACIC AND MEDIASTINAL DISORDERS, Any Preferred Term",[3],0 (0.0) No. of Patients (%)
same,Treatment-Related Adverse Events: STOMACH DISCOMFORT,[3],0 (0.0) No. of Patients (%)
same,Treatment-Emergent AE: DRY MOUTH,max severity Mild,0 (0.0) No. of Patients (%)
same,Treatment-Emergent AE: DYSGEUSIA,max severity Mild,1 (2.0) No. of Patients (%)
same,"Treatment-Emergent AE: EAR AND LABYRINTH DISORDERS, Any Preferred Term",max severity Mild,0 (0.0) No. of Patients (%)
same,Treatment-Emergent AE: EAR PAIN,max severity Mild,0 (0.0) No. of Patients (%)
same,Treatment-Emergent AE: EPISTAXIS,max severity Mild,0 (0.0) No. of Patients (%)
same,"Treatment-Emergent AE: GASTROINTESTINAL DISORDERS, Any Preferred Term",max severity Mild,1 (2.0) No. of Patients (%)
same,Treatment-Emergent AE: HEADACHE,max severity Mild,1 (2.0) No. of Patients (%)
same,"Treatment-Emergent AE: MUSCULOSKELETAL AND CONNECTIVE TISSUE DISORDERS, Any Preferred Term",max severity Mild,1 (2.0) No. of Patients (%)
same,Treatment-Emergent AE: MYALGIA,max severity Mild,0 (0.0) No. of Patients (%)
